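Assay format: 96-well plates, 48-hour exposure. GI50 is the concentration that inhibits growth by half.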 The source made the active and inactive calls. No stated cut-off is given here; in the data, active = GI50 up to about 1.1 µM and inactive = higher.
Assays:
Assay in all cases: inhibition of tumour cell growth, NCI panel, 48 h
A498 = tested on: A498
ACHN = tested on: ACHN
CAKI-1 = tested on: CAKI-1
HCC 2998 = tested on: HCC 2998
HCT-116 = tested on: HCT-116
IGROV-1 = tested on: IGROV-1
KM12 = tested on: KM12
MDA-MB-231 = tested on: MDA-MB-231
NCI-H522 = tested on: NCI-H522
NCI/ADR-RES = tested on: NCI/ADR-RES
OVCAR-3 = tested on: OVCAR-3
PC-3 = tested on: PC-3
RPMI-8226 = tested on: RPMI-8226
SK-MEL-2 = tested on: SK-MEL-2
SN12C = tested on: SN12C
SNB-19 = tested on: SNB-19
SNB-75 = tested on: SNB-75
U-251 = tested on: U-251
OVCAR-4 = tested on: OVCAR-4
OVCAR-5 = tested on: OVCAR-5

| Compound | GI50 (A498) | GI50 (ACHN) | GI50 (CAKI-1) | GI50 (HCC 2998) | GI50 (HCT-116) | GI50 (IGROV-1) | GI50 (KM12) | GI50 (MDA-MB-231) | GI50 (NCI-H522) | GI50 (NCI/ADR-RES) | GI50 (OVCAR-3) | GI50 (PC-3) | GI50 (RPMI-8226) | GI50 (SK-MEL-2) | GI50 (SN12C) | GI50 (SNB-19) | GI50 (SNB-75) | GI50 (U-251) | GI50 (OVCAR-4) | GI50 (OVCAR-5) |
| --- | --- | --- | --- | --- | --- | --- | --- | --- | --- | --- | --- | --- | --- | --- | --- | --- | --- | --- | --- | --- |
| O=C(NCCCCNCCCNC(=O)c1cc(-c2ccccc2)nc2ccccc12)c1cc(-c2ccccc2)nc2ccccc12 | 2.08 µM (inactive) | 1.9 µM (inactive) | 1.84 µM (inactive) | 1.64 µM (inactive) | 1.8 µM (inactive) | 1.55 µM (inactive) | 1.7 µM (inactive) | 1.85 µM (inactive) | 1.7 µM (inactive) | 2.26 µM (inactive) | 1.55 µM (inactive) | 1.63 µM (inactive) | 2.5 µM (inactive) | 1.91 µM (inactive) | 1.97 µM (inactive) | 1.76 µM (inactive) | 1.84 µM (inactive) | 1.91 µM (inactive) | – | – |
| O=c1c2c(sc3ccccc13)NCN(CCc1ccccc1)C2 | 67.9 µM (inactive) | 35.2 µM (inactive) | 41.6 µM (inactive) | 22.1 µM (inactive) | 23.4 µM (inactive) | 24.7 µM (inactive) | 27.9 µM (inactive) | 23.5 µM (inactive) | 31.7 µM (inactive) | 20.7 µM (inactive) | 73.3 µM (inactive) | 39.3 µM (inactive) | 19.9 µM (inactive) | 23.8 µM (inactive) | 41.8 µM (inactive) | 30.8 µM (inactive) | 16.6 µM (inactive) | 36.8 µM (inactive) | 36.8 µM (inactive) | 81.5 µM (inactive) |
| O=S1(=O)CCN(Cc2ccccn2)CC1 | > 100 µM (inactive) | > 100 µM (inactive) | > 100 µM (inactive) | > 100 µM (inactive) | > 100 µM (inactive) | > 100 µM (inactive) | > 100 µM (inactive) | > 100 µM (inactive) | > 100 µM (inactive) | > 100 µM (inactive) | 4.49 µM (inactive) | > 100 µM (inactive) | > 100 µM (inactive) | > 100 µM (inactive) | > 100 µM (inactive) | > 100 µM (inactive) | > 100 µM (inactive) | > 100 µM (inactive) | > 100 µM (inactive) | > 100 µM (inactive) |
| COC(=O)CC1C=CC(C)(OC)OO1 (stereo unspecified) | > 100 µM (inactive) | 94.4 µM (inactive) | > 100 µM (inactive) | 59.7 µM (inactive) | > 100 µM (inactive) | > 100 µM (inactive) | > 100 µM (inactive) | > 100 µM (inactive) | 16.9 µM (inactive) | > 100 µM (inactive) | 87.7 µM (inactive) | > 100 µM (inactive) | 56.2 µM (inactive) | > 100 µM (inactive) | > 100 µM (inactive) | > 100 µM (inactive) | > 100 µM (inactive) | > 100 µM (inactive) | 97.9 µM (inactive) | > 100 µM (inactive) |
| Cc1cc(C(F)(F)F)cc(-n2nc(NS(=O)(=O)c3cc(C)c(Cl)cc3S)nc2N)n1 | 26 µM (inactive) | 53.3 µM (inactive) | 7.46 µM (inactive) | 34.8 µM (inactive) | 33.7 µM (inactive) | 36.6 µM (inactive) | 42.9 µM (inactive) | 37.7 µM (inactive) | 32 µM (inactive) | 30.8 µM (inactive) | 51.3 µM (inactive) | 47.4 µM (inactive) | 65.8 µM (inactive) | 26.2 µM (inactive) | 35.5 µM (inactive) | 26.8 µM (inactive) | > 100 µM (inactive) | 42.2 µM (inactive) | > 95.3 µM (inactive) | – |
| COC(=O)c1ccccc1C1CN=NC12Cc1ccc3ccccc3c1C2=O (stereo unspecified) | > 100 µM (inactive) | > 100 µM (inactive) | > 100 µM (inactive) | > 100 µM (inactive) | – | > 100 µM (inactive) | 52.5 µM (inactive) | > 100 µM (inactive) | 80.4 µM (inactive) | > 100 µM (inactive) | 17.7 µM (inactive) | > 100 µM (inactive) | 13.4 µM (inactive) | > 100 µM (inactive) | > 100 µM (inactive) | > 100 µM (inactive) | > 100 µM (inactive) | > 100 µM (inactive) | > 100 µM (inactive) | > 100 µM (inactive) |
| C1=C\CCCCN2C[C@H]3CCCC/C=C\CCCCN4CC[C@@H]([C@H](CCCCCC/1)C4)[C@H](C3)C2 | 6.65 µM (inactive) | 2.07 µM (inactive) | 2.79 µM (inactive) | 0.51 µM (active) | 2.11 µM (inactive) | 3.37 µM (inactive) | 1.82 µM (inactive) | 0.979 µM (active) | 1.69 µM (inactive) | 3.12 µM (inactive) | 1.8 µM (inactive) | 3.12 µM (inactive) | 1.57 µM (inactive) | 1.88 µM (inactive) | 10 µM (inactive) | 2.06 µM (inactive) | 2.16 µM (inactive) | 2.2 µM (inactive) | 1.62 µM (inactive) | 7.5 µM (inactive) |

Source: ChEMBL document CHEMBL1201862, “PubChem BioAssay data set” (2004)
